Here are results for two compounds from US8278072B1, “Method for synthesis of sialylated products using reversible sialylation” (Health Research, Inc., priority 2007, dated 2012).

For one test, the system named is HL60. The test is described as follows: Reversible sialyltransferase activity in cell extract. The format is biochemical, human. The following applies: HL60 (leukemia) cell extract, 1.0 mM 5′-CMP, 16 h, pH 6.0. An excerpt: (§1) Thus, [9-^3H[4]] was used as donor and D-Fucβ1,3GalNAcα-O-Bn as acceptor in the presence of 5′-CMP and solubilized cell extracts. Of the cells tested, human prostate cancer cell lines LNCaP and PC-3 contained significant reversible sialyltransferase activity.

In another test the test system is LS180. Described as above. It counts as biochemical, human. As to conditions: LS180 (colon) cell extract, 1.0 mM 5′-CMP, 16 h, pH 6.0.
Text: as §1

In another test the test system is MDA-MB231. The test is described as above. The format is biochemical, human. The following applies: MDA-MB231 (breast) cell extract, 1.0 mM 5′-CMP, 16 h, pH 6.0.
Text: as §1

For the next test, the system named is ZR75-1. The test is described as above. The format is biochemical, human. The following applies: ZR75-1 (breast) cell extract, 1.0 mM 5′-CMP, 16 h, pH 6.0.
Text: as §1

The subject of another test is T47D. Described as above. As to conditions: T47D (breast) cell extract, 1.0 mM 5′-CMP, 16 h, pH 6.0. It counts as biochemical, human.
Text: as §1

For a further test, the system named is LNCaP. Described as above. It counts as biochemical, human. The following applies: LNCaP (prostate) cell extract, 1.0 mM 5′-CMP, 16 h, pH 6.0.
Text: as §1

The test system of the next test is MDA-MB-435. The description is as above. It counts as biochemical, human. As to conditions: MDA-MB-435 (breast) cell extract, 1.0 mM 5′-CMP, 16 h, pH 6.0.
Text: as §1

Another test has as its system MCF-7. Described as above. It counts as biochemical, human. As to conditions: MCF-7 (breast) cell extract, 1.0 mM 5′-CMP, 16 h, pH 6.0.
Text: as §1

The subject of the next test is PC3. Described as above. As to conditions: PC3 (prostate) cell extract, 1.0 mM 5′-CMP, 16 h, pH 6.0. It counts as biochemical, human.
Text: as §1

Test [1] addresses T1, ST3Gal-II (Rattus norvegicus, UniProt Q11205).
T1 construct: purchased Calbiochem
T1 sequence (Q11205 1-350): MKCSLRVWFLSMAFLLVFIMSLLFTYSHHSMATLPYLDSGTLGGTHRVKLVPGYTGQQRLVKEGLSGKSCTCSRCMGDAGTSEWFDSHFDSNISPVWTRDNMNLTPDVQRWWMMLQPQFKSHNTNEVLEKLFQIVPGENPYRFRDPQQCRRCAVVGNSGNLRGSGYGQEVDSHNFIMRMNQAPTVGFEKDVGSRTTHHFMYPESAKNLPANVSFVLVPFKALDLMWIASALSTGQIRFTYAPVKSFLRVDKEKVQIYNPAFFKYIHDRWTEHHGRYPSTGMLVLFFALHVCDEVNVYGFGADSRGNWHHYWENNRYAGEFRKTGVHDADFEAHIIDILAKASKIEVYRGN
Put plainly: Serial transfer of sialic acid from donor via 5′-CMP to acceptors (scheme-II). The format is biochemical. As to conditions: 0.15 mM donor; 2 mM 5′-CMP with core-2 donors. The protocol: FIG. 3. Serial transfer of sialic acid using scheme-II was followed at increasing concentrations of acceptor D-Fucβ1,3GalNAcα-O-Bn. The donor used was either: i) 0.15 mM [9-^3H]CMP-NeuAc; or, ii) 0.15 mM [9-^3H]NeuAcα2,3Galβ1,3(4-FGlcNAcβ1,6)GalNAcα-O-Bn [9-^3H [2]] in the presence of 2.0 mM 5′-CMP, or iii) [9-^3H]NeuAcα2,3Galβ1,3(6-O-SulfoGlcNAcβ1,6)GalNAcα-O—Al [[9-^3H] [4]] in the presence of 2.0 mM 5′-CMP. In runs where [9-^3H [2]] was donor since both and [2] bind C18 cartridges, control runs were performed in the absence of D-Fucβ1,3GalNAcα-O-Bn to estimate the amount of [9-^3H]CMP-NeuAc formed under the experimental conditions. 80-85% of the radioactivity was transferred to CMP-NeuAc in these runs. The amount of CMP-NeuAc remaining in runs with was then subtracted from CMP-NeuAc radioactivity in the control run to determine the amount of sialylated. To complement this run, studies were also performed with [[9-^3H] […] In these runs, the amount of sialylated was determined by measuring radioactivity retained in the C18-cartridge. a. Equilibrium constant was 5.55 when CMP-[9-^3H]NeuAc was donor. b. ˜10-fold lower acceptor concentration was required for similar extents of reaction when CMP-[9-^3H]NeuAc was donor, compared to core-2 based donors and [4].
We tested the possibility that CMP-NeuAc formed above may be available for transfer to other acceptors using ST3Gal-II (scheme-II, FIG. 3). For this, three radiolabeled donors were prepared using methods described above: two were based on the mucin Core-2 structure ([[9-^3H] [1]] and [9-^3H]NeuAcα2,3Galβ1,3(6-O-SulfoGlcNAcβ1,6)GalNAcα-O—Al [[9-^3H] [4]]) while the third was based on the Globo glycolipid ([9-^3H] [3]). The transfer of [9-^3H]NeuAc from these sialylated donors to various T-hapten (Galβ1,3GalNAcα) and mucin core2-based glycoside acceptors in the presence of 5′-CMP and ST3Gal-II was assessed (Table III). All three […] of ST3Gal-II ([1], [3] and [4]) allowed formation of CMP-[9-^3H]NeuAc, and a diverse array of products.
The transfer of [9-^3H]NeuAc from [[9-^3H][1]] to D-Fucβ1,3GalNAcα-O-Bn in the presence of 5′-CMP and ST3Gal-II increased linearly in the first two hours and it reached saturation at 4 hours (FIG. 12), and thus the data in Table III (4 hours time point) represent equilibrium conditions. […] Further, diverse sialylated products can be formed using the same synthetic sialylated donor.
In order to compare the efficiency of individual reactions of scheme II, independent runs were performed where either 0.15 mM [9-^3H]CMP-NeuAc, 0.15 mM [9-^3H] [2] or 0.15 mM [9-^3H] [4] was the donor, and [5] was the acceptor (FIG. 3). 2 mM 5′-CMP was added in runs with core-2 donors and [4], and thus reverse sialylation of these molecules was feasible. Keq for transfer of sialic acid from CMP-NeuAc to [5] was 5.55 (FIG. 3a). […] (˜6 mM) or [9-^3H[4]] (˜6 mM). Thus, while the two-step mechanism results in lower conversion than CMP-NeuAc alone, the transfer of NeuAc still takes place at an appreciable rate.

The target in another test is T2, ST3Gal-III (Rattus norvegicus, UniProt Q02734).
T2 construct: purchased Calbiochem
T2 sequence (Q02734 1-374): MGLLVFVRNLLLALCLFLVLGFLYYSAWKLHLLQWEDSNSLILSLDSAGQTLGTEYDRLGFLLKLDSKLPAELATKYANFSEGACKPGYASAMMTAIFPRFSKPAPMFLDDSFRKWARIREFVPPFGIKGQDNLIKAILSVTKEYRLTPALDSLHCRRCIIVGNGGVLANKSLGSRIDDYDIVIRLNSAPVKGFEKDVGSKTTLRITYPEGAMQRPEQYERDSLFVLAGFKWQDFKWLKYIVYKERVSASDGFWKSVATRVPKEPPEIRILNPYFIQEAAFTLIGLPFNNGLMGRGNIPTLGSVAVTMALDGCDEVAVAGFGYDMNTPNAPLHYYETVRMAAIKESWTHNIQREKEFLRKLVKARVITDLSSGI
The test is described as follows: CMP-NeuAc / UMP-NeuAc formed by reverse sialylation as sialyl donor, ST3Gal-III activity. As to conditions: acceptor 2.5 mM 4-O-MeGalβ1,4GlcNAcβ-O-Bn; donor [3] 0.0625 mM, 8 mM 5′-CMP or 5′-UMP, ST3Gal-II plus ST3Gal-III, 4 h. It counts as biochemical.

Test [2] concerns the target T1, ST3Gal-II. The test is described as follows: CMP-NeuAc / UMP-NeuAc formed by reverse sialylation as sialyl donor, ST3Gal-II activity. The format is biochemical. As to conditions: acceptor 2.5 mM D-Fucβ1,3GalNAcα-O-Bn; donor [3] 0.0625 mM, 8 mM 5′-CMP or 5′-UMP, 4 h, blank subtracted.
The target in the next test is T3, ST6Gal-I (Rattus norvegicus, UniProt P13721).
T3 construct: purchased Calbiochem
T3 sequence (P13721 1-403): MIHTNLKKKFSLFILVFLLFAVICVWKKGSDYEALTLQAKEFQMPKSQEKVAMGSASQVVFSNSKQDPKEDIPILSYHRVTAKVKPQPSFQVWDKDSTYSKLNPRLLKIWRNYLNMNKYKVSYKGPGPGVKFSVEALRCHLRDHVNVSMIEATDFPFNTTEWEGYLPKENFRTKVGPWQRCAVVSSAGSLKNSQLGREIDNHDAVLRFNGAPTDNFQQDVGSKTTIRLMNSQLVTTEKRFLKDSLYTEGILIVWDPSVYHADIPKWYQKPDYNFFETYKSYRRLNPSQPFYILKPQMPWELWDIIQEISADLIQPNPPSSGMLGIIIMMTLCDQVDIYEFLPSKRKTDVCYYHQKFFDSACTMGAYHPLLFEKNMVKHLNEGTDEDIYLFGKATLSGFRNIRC
Put plainly: CMP-NeuAc / UMP-NeuAc formed by reverse sialylation as sialyl donor, ST6Gal-I activity. It counts as biochemical. The following applies: acceptor 2.5 mM Galβ1,4GlcNAcβ-O-Bn; donor [3] 0.0625 mM, 8 mM 5′-CMP or 5′-UMP, ST3Gal-II plus ST6GalI, 4 h.

Turning to “[9-^3H]NeuAcα2,3Galβ1,3(6-O-SulfoGlcNAcβ1,6)GalNAcα-O—Al [[4]]”, the “Transfer of [9-3H]NeuAc from [9-3H[4]] to [5]” value was 0.76 CPM × 10^−3/mg protein in the test on HL60; 0.01 CPM × 10^−3/mg protein with LS180; 0.09 CPM × 10^−3/mg protein in the test on MDA-MB231; 1.32 CPM × 10^−3/mg protein in the test on ZR75-1; 0.52 CPM × 10^−3/mg protein with T47D; 19.89 CPM × 10^−3/mg protein in the test with LNCaP. The “Transfer of [9-3H]NeuAc from [9-3H[4]] to [5]” value in the test with MDA-MB-435 is recorded as 0.69 CPM × 10^−3/mg protein; in the test with MCF-7, 0.57 CPM × 10^−3/mg protein; in the test with PC3 it was 4.72 CPM × 10^−3/mg protein. In addition, the “amount of acceptor [5] required for comparable transfer” value on ST3Gal-II [1] was approximately 6 mM.
In the case of `CC(=O)N[C@H]1[C@H]([C@H](O)[C@H](O)CO)O[C@](OP(=O)(O)OC[C@H]2O[C@@H](n3ccc(N)nc3=O)[C@H](O)[C@@H]2O)(C(=O)O)C[C@@H]1O` [CMP-NeuAc, reference compound], the “Incorporation of [9-3H]NeuAc into the acceptor, ST3Gal-III activity” value at ST3Gal-III came out at 59531 CPM. Moreover, the “Incorporation of [9-3H]NeuAc into the acceptor, ST3Gal-II activity” value at ST3Gal-II [2] came to 134122 CPM. Moreover, on ST6Gal-I, the “Incorporation of [9-3H]NeuAc into the acceptor, ST6Gal-I activity” value was found to be 15066 CPM. The “amount of acceptor [5] required for comparable transfer” value on ST3Gal-II [1] was 0.6 mM.
